Laboratory results from patent publication US20060134102A1, “Lymphotoxin beta receptor agents in combination with chemotherapeutic agents” (Biogen Idec MA Inc., priority 2002, published 2006).
Where “and” joins values, the source holds several entries; their conditions need not be identical. Equal entries are not always repeated.

Legend:
[1] = system: WiDr human colorectal adenocarcinoma; assay: WiDr xenograft model: growth of established WiDr human colorectal tumors in athymic nude mice (tumor volume/weight, % T/C, Fa, Combination Index); conditions: for Volume Decrease: vs control; for Individual Fractional Inhibition of Tumor Volume / Individual Tumor Volumes: individual animals
Method: Therapeutic agents, i.e. LTβR agonist and chemotherapeutic agents, were administered to athymic nude mice who had been implanted with WiDr tumor cells.
WiDr cells were obtained from the American Type Culture Collection (Manassas, Va.). Cells were grown in vitro in 90% Eagle's Minimum Essential Medium with 2 mM L-glutamine and Earle's Balanced Salt Solution (BSS) adjusted to contain 1.5 g/L sodium bicarbonate, 0.1 mM non-essential amino acids, and 1 mM sodium pyruvate plus 10% fetal bovine serum (FBS) without antibiotics (5% CO2). Bacterial cultures were performed on aliquots of the tumor homogenate preparation that was implanted into the mice to ensure that all cultures were negative for bacterial contamination at both 24 and 48 hours post implant.
When the tumors measured approximately 5 mm in length by 5 mm in width, mice were randomized to treatment and control groups. Body weight measurements were recorded twice-weekly beginning on Day 0.
Tumor measurements were determined using Vernier calipers. Tumor size measurements were recorded regularly according to the study, until the termination of the study. The formula to calculate volume for a prolate ellipsoid was used to estimate tumor volume (mm^3) from 2-dimensional tumor measurements: tumor volume (mm^3)=(length×width^2 [L×W^2])÷2. Assuming unit density, volume was converted to weight (i.e., 1 mm^3=1 mg). Tumor growth inhibition was assessed as % T/C, where T is the mean tumor weight of the treatment group and C is the mean tumor weight of the control group. […] Animals were sacrificed accordingly.
Statistical analysis of the tumor weight measurements was performed according to standard statistical methods. Mean, standard deviation (SD), and standard error of the mean (SEM) were determined for body weight and tumor weight for all dose groups at all assessments.
Antitumor efficacy was determined by comparing each treatment group's tumor volume with the control group's tumor volume. Mean tumor volume decrease was calculated as the difference between the control group and the treatment group mean tumor volume. The fractional inhibition of tumor volume, i.e., the fraction affected (Fa), was calculated by dividing the treatment group mean tumor volume decrease by the control group mean tumor volume. […] Further statistical analysis was performed accordingly.

[2] = system: KM-20L2 human colorectal adenocarcinoma; assay: KM-20L2 xenograft model: growth of established KM-20L2 human colorectal tumors in athymic nude mice (tumor volume/weight, % T/C, Fa, Combination Index); assay type: in vivo; conditions: for Mean Fraction Affected (Fa): Camptosar 3 mg/kg alone; for Fraction affected (Fa): Camptosar 6.0 mg/kg given separately

COc1cccc2c1C(=O)c1c(O)c3c(c(O)c1C2=O)C[C@@](O)(C(=O)CO)C[C@@H]3O[C@H]1C[C@H](N)[C@H](O)[C@H](C)O1 [Adriamycin, adriamycin, reference compound]
Fa (fractional inhibition of tumor volume), group mean ([1]; Adriamycin 4 mg/kg, day 35): −0.204 | Fa, individual animals ([1]; Adriamycin 4 mg/kg, day 35): 0.033 and −0.408 and −1.391 and 0.530 and −0.660 and −0.137 and −0.379 and −0.389 and 0.251 and 0.512 | Tumor Volume, group mean ([1]; Adriamycin 4 mg/kg, day 35): 1353.0 | Tumor volume, individual animals ([1]; Adriamycin 4 mg/kg, day 35): 1582.5 and 2687.5 and 528.1 and 1865.5 and 1277.8 and 1550.2 and 1560.9 and 842.1 and 548.3 | Volume Decrease vs control, group mean ([1]; Adriamycin 4 mg/kg, day 35): −229.0 | Fa (fractional inhibition of tumor volume), group mean ([1]; Adriamycin 6 mg/kg, day 35): 0.089 | Fa, individual animals ([1]; Adriamycin 6 mg/kg, day 35): −0.295 and 0.095 and 0.380 and 0.462 and 0.198 and 0.209 and 0.057 and −0.060 and 0.522 and −0.674 | Tumor Volume, group mean ([1]; Adriamycin 6 mg/kg, day 35): 1023.5 | Tumor volume, individual animals ([1]; Adriamycin 6 mg/kg, day 35): 1455.4 and 696.6 and 605.1 and 901.8 and 889.3 and 1191.2 and 537.2 and 1881.7 | Volume Decrease vs control, group mean ([1]; Adriamycin 6 mg/kg, day 35): 100.5 | Activity by NCI criteria (% T/C at or below 42) ([1]; adriamycin 1 mg/kg to 6 mg/kg intraperitoneal, all tested doses): inactive | Inhibition of tumor growth ([1]; adriamycin 6 mg/kg or 4 mg/kg, day 35, separate study): did not produce a significant inhibition | Tumor growth vs vehicle control ([1]; adriamycin groups, day 42 (end of study)): no significant difference

CCc1c2c(nc3ccc(OC(=O)N4CCC(N5CCCCC5)CC4)cc13)-c1cc3c(c(=O)n1C2)COC(=O)[C@]3(O)CC [Camptosar, irinotecan, reference compound]
Fa (Fraction Affected), group mean ([1]; Camptosar 3 mg/kg, day 21): 0.238 | Fa, individual animals ([1]; Camptosar 3 mg/kg, day 21): 0.336 and 0.314 and 0.078 and 0.269 and 0.245 and −0.068 and 0.513 and 0.208 and 0.093 | Fa (Fraction Affected), group mean ([1]; Camptosar 6 mg/kg, day 21): 0.441 | Fa, individual animals ([1]; Camptosar 6 mg/kg, day 21): 0.302 and 0.473 and 0.521 and 0.544 (2×) and 0.590 and 0.110 and 0.614 and 0.277 | Fa (Fraction Affected), group mean ([1]; Camptosar 10 mg/kg, day 21): 0.476 | Fa, individual animals ([1]; Camptosar 10 mg/kg, day 21): 0.464 and 0.347 and 0.575 and 0.375 and 0.573 and 0.163 and 0.516 and 0.684 and 0.648 | Activity by NCI criteria (% T/C of 42 or less) ([1]; Camptosar […] to 10 mg/kg): inactive | Median Effect Dose ([1]; Camptosar combined with huCBE11 (0.555:1), day 21): 5.7 mg/kg | Median Effect Dose ([1]; Camptosar given separately, day 21): 9.8 mg/kg | Activity by NCI criteria (% T/C at or below 42) ([2]; Camptosar): active | Mean Fraction Affected (Fa) ([2]; Day 9): 0.098 | Mean Fraction Affected (Fa) ([2]; Day 13): 0.327 | Mean Fraction Affected (Fa) ([2]; Day 20): 0.593 | Mean Fraction Affected (Fa) ([2]; Day 23): 0.521 | Mean Fraction Affected (Fa) ([2]; Day 30): 0.406 | Inhibition of tumor growth vs saline control ([2]; Camptosar 6 mg/kg days 13 through 51, 3 mg/kg days 13 through 48, […] days 9 through 44, separate study): statistically significant inhibition of tumor growth | Fraction affected (Fa) ([2]; Day 16): 0.594 | Fraction affected (Fa) ([2]; Day 20): 0.781 | Fraction affected (Fa) ([2]; Day 23): 0.759 | Fraction affected (Fa) ([2]; Day 27): 0.701 | Fraction affected (Fa) ([2]; Day 30): 0.607 | Fraction affected (Fa) ([2]; Day 34): 0.564 | Fraction affected (Fa) ([2]; Day 37): 0.495 | Tumor inhibition ([2]; Camptosar groups, end of day 55, separate study): no significant tumor inhibition | Median Effect Dose ([2]; Combined (1:0.63 huCBE11:Camptosar), dose of the labelled agent in the combination, Day 13): 6.7 mg/kg | Median Effect Dose ([2]; Combined (1:0.63 huCBE11:Camptosar), dose of the labelled agent in the combination, Day 16): 1.6 mg/kg | Median Effect Dose ([2]; Combined (1:0.63 huCBE11:Camptosar), dose of the labelled agent in the combination, Day 20): 0.6 mg/kg | Median Effect Dose ([2]; Combined (1:0.63 huCBE11:Camptosar), dose of the labelled agent in the combination, Day 23): 0.7 mg/kg | Median Effect Dose ([2]; Combined (1:0.63 huCBE11:Camptosar), dose of the labelled agent in the combination, Day 27): 1.0 mg/kg | Median Effect Dose ([2]; Combined (1:0.63 huCBE11:Camptosar), dose of the labelled agent in the combination, Day 30): 1.1 mg/kg | Median Effect Dose ([2]; Combined (1:0.63 huCBE11:Camptosar), dose of the labelled agent in the combination, Day 34): 1.1 mg/kg | Median Effect Dose ([2]; Combined (1:0.63 huCBE11:Camptosar), dose of the labelled agent in the combination, Day 37): 1.0 mg/kg | Median Effect Dose ([2]; Combined (1:0.63 huCBE11:Camptosar), dose of the labelled agent in the combination, Day 41): 1.0 mg/kg | Median Effect Dose ([2]; Given Separately, Day 13): 12.4 mg/kg | Median Effect Dose ([2]; Given Separately, Day 16): 4.0 mg/kg | Median Effect Dose ([2]; Given Separately, Day 20): 2.3 mg/kg | Median Effect Dose ([2]; Given Separately, Day 23): 2.7 mg/kg | Median Effect Dose ([2]; Given Separately, Day 27): 3.2 mg/kg | Median Effect Dose ([2]; Given Separately, Day 30): 4.2 mg/kg | Median Effect Dose ([2]; Given Separately, Day 34): 4.7 mg/kg | Median Effect Dose ([2]; Given Separately, Day 37): 6.0 mg/kg | Median Effect Dose ([2]; Given Separately, Day 41): 7.3 mg/kg

N.N.[Cl][Pt][Cl] [Cisplatin, cisplatin, reference compound]
Fa (fractional inhibition of tumor volume), group mean ([1]; Cisplatin 1 mg/kg, day 44): 0.083 | Fa, individual animals ([1]; Cisplatin 1 mg/kg, day 44): −0.478 and 0.344 and 0.025 and −0.016 and 0.140 and 0.102 and 0.222 and 0.128 and 0.098 and 0.268 | Tumor Volume, group mean ([1]; Cisplatin 1 mg/kg, day 44): 1300.4 | Tumor volume, individual animals ([1]; Cisplatin 1 mg/kg, day 44): 2096.4 and 930.1 and 1383.3 and 1440.7 and 1220.3 and 1274.3 and 1103.9 and 1236.7 and 1280.0 and 1038.3 | Volume Decrease vs control, group mean ([1]; Cisplatin 1 mg/kg, day 44): 118.2 | Fa (fractional inhibition of tumor volume), group mean ([1]; Cisplatin 2 mg/kg, day 44): 0.055 | Fa, individual animals ([1]; Cisplatin 2 mg/kg, day 44): 0.082 and −0.061 and −0.036 and 0.618 and −0.290 and −0.523 and 0.241 and 0.054 and 0.316 and 0.151 | Tumor Volume, group mean ([1]; Cisplatin 2 mg/kg, day 44): 1340.1 | Tumor volume, individual animals ([1]; Cisplatin 2 mg/kg, day 44): 1301.9 and 1505.3 and 1469.5 and 541.4 and 1829.8 and 2160.2 and 1076.4 and 1342.0 and 970.2 and 1204.2 | Volume Decrease vs control, group mean ([1]; Cisplatin 2 mg/kg, day 44): 78.5 | Activity by NCI criteria (% T/C of 42 or less) ([1]; cisplatin 2 mg/kg to 0.25 mg/kg): inactive | Tumor growth vs saline control ([1]; cisplatin 2 mg/kg, 1 mg/kg and 0.25 mg/kg, day 50): did not differ significantly

CC(=O)O[C@H]1C(=O)[C@@]2(C)[C@H]([C@H](OC(=O)c3ccccc3)[C@]3(O)C[C@H](OC(=O)[C@H](O)[C@@H](NC(=O)c4ccccc4)c4ccccc4)C(C)=C1C3(C)C)[C@]1(OC(C)=O)CO[C@@H]1C[C@@H]2O [Taxol, reference compound]
Fa (Fraction Affected) ([1]; Day 34, Taxol 12.5 mg/kg): 0.171 | Tumor Volume ([1]; Day 34, Taxol 12.5 mg/kg): 1141.1 | Fa (Fraction Affected) ([1]; Day 34, Taxol 18.75 mg/kg): 0.588 | Tumor Volume ([1]; Day 34, Taxol 18.75 mg/kg): 567.5 | Volume Decrease ([1]; Day 34, Taxol 18.75 mg/kg): 808.9 | Fa (Fraction Affected) ([1]; Day 34, Taxol 25 mg/kg): 0.812 | Tumor Volume ([1]; Day 34, Taxol 25 mg/kg): 259.1 | Volume Decrease ([1]; Day 34, Taxol 25 mg/kg): 1117.3 | Median Effect Dose ([1]; Day 34, Taxol Given Separately): 12.6 mg/kg | Median Effect Dose ([1]; Day 34, Taxol dose, Combined (0.333:1) with huCBE11): 6.6 mg/kg | Individual Fractional Inhibition of Tumor Volume ([1]; Day 34, Taxol 6.25): 0.231 and −0.036 and 0.421 and 0.375 and 0.469 and 0.157 and 0.552 and 0.284 and −0.217 and 0.168 | Individual Tumor Volumes ([1]; Day 34, Taxol 6.25): 1058.1 and 1425.5 and 796.7 and 860.4 and 730.5 and 1159.9 and 616.0 and 985.1 and 1675.4 and 1144.5 | Individual Fractional Inhibition of Tumor Volume ([1]; Day 34, Taxol 12.5): 0.854 and 0.191 and 0.140 and 0.037 and −0.278 and 0.170 and 0.192 and −0.130 and 0.198 and 0.336 | Individual Tumor Volumes ([1]; Day 34, Taxol 12.5): 201.1 and 1113.1 and 1183.1 and 1325.2 and 1759.5 and 1143.0 and 1112.7 and 1554.9 and 1104.0 and 914.1 | Tumor growth vs vehicle control ([1]; Taxol 12.5 mg/kg, […] and 3.13 mg/kg): did not differ significantly | % T/C ([1]; Taxol 18.75 mg/kg, Days 21 to 34): below 42% | % T/C ([1]; Taxol 25 mg/kg, Days 13 to 39): below 42% | % T/C ([1]; Taxol 25 mg/kg, Days 21 to 50): below 42% | % T/C ([1]; Taxol 12.5, 6.25 and 3.13 mg/kg, throughout the study): > 82%
